Where a name gives a salt, the structure may show the parent alone. Read-outs that look alike come from different tables or passages of the source.
Molecular target: T1, human A3AR (Homo sapiens, UniProt P0DMS8)
T1 construct: expressed in transfected cells
T1 sequence (P0DMS8 1-318): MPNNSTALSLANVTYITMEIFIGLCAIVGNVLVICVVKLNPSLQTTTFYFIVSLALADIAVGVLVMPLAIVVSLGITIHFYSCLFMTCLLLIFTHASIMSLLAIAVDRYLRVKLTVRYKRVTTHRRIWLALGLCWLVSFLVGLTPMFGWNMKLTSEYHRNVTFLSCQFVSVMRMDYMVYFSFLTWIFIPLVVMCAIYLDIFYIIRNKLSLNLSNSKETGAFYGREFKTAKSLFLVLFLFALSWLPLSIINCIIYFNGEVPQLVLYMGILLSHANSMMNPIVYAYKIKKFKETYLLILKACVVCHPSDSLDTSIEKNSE
Test: LOPAC library primary screen: single concentration (10 μM) inhibition of 25 nM CA200645 binding, PHERAstar FS
Conditions: for hit in LOPAC primary screen (inhibited the binding of CA200645 by >40%): 10 μM compound, 25 nM CA200645, A3AR CHO cells

[1] = % of control wells (1% DMSO and 25 nM CA200645), compounds at 10 µM, whole live cells expressing the A3AR, mean ± SD, three experiments in duplicate
[2] = compounds tested at 10 µM, % of control wells (1% DMSO and 25 nM CA200645), whole live cells expressing the A3AR, mean ± SD, three experiments in duplicate

Molecule | % 25 nM CA200645 binding | further results
CC(C)(C)[C@]1(O)CCN2C[C@H]3c4ccccc4CCc4cccc(c43)[C@@H]2C1 [(+)-Butaclamol hydrochloride] | 98.6 ± 1.9% | –
CCCCCCCCCCC/C=C\C(C)(C)/C=C\CCCC(=O)O [7,7-Dimethyl-(5Z,8Z)-eicosadienoic acid] | 100.3 ± 12.4% | –
Nc1ccc(N2C(=O)c3ccccc3C2=O)c(Cl)c1 [N-(4-Amino-2-chlorophenyl)phthalimide] | 91.1 ± 7.1% | –
CC(NC(C)(C)C)C(=O)c1cccc(Cl)c1 (stereo not drawn) [Bupropion hydrochloride] | 98.9 ± 4.9% | –
O=C(O)CP(=O)(O)O [Phosphonoacetic acid] | 103.4 ± 12.3% | –
Nc1nc(O)c2ncn(COC(CO)CO)c2n1 [Ganciclovir] | 96.3 ± 6.5% | –
CC(C)(Sc1ccc(CCN(CCCCC2CCCCC2)C(=O)NC2CCCCC2)cc1)C(=O)O [GW7647] | 55.8 ± 12.2% | –
CC(C)(C)c1cc(C=C(C#N)C#N)cc(C(C)(C)C)c1O [Tyrphostin A9] | 93.2 ± 14.5% | –
CC(C)[N+](C)(CCOC(=O)C1c2ccccc2Oc2ccccc21)C(C)C [Propantheline bromide] | 95.5 ± 4.8% | –
CCCCCCCC/C=C\CCCCCCCC(=O)NCc1ccc(O)c(OC)c1 [Olvanil] | 76.7 ± 2.8% | –
N[C@@H](Cc1c[nH]c2ccccc12)C(=O)O [L-Tryptophan] | – | % 25 nM CA200645 binding [1]: 100.0 ± 3.7%
COCc1nc2c([nH]1)c(=O)n(C)c(=O)n2CC(C)C | 99.2 ± 10.1% | –
Cn1c(=O)c2nc(C3CCCC3)[nH]c2n(C)c1=O [CPT, reference compound] | – | hit in LOPAC primary screen (inhibited the binding of CA200645 by >40%): not identified as hits
N=C(N)N1CCc2ccccc2C1 [Debrisoquin sulfate] | 81.0 ± 16.3% | –
O=Nc1ccc2oc(=O)ccc2c1 [6-Nitroso-1,2-benzopyrone] | 107.9 ± 12.7% | –
Clc1ccccc1C(c1ccccc1)(c1ccccc1)n1ccnc1 [Clotrimazole] | 74.0 ± 15.0% | –
CN1CCC(c2c[nH]c3ccc(O)cc23)CC1.O=C(O)/C=C\C(=O)O [BRL 54443 maleate] | 102.8 ± 6.2% | –
CN(C)CCCC1(c2ccc(F)cc2)OCc2cc(C#N)ccc21 (stereo not drawn) [Citalopram hydrobromide] | 97.2 ± 4.4% | –
N[C@H](CO)C(=O)O [D-Serine] | 100.2 ± 11.0% | –
CC1=C(C(=O)O)N2C(=O)[C@@H](NC(=O)[C@H](N)c3ccccc3)[C@H]2SC1.O [Cephalexin hydrate] | 101.0 ± 8.0% | –
NCCc1c[nH]c2ccc(O)cc12 [Serotonin hydrochloride] | 95.8 ± 9.3% | –
NC(CCCCCP(=O)(O)O)C(=O)O (racemic) [(±)-2-Amino-7-phosphonoheptanoic acid] | 52.2 ± 10.8% | –
NC(=O)c1ccc2[nH]ccc2c1 [SD-169] | 96.7 ± 5.5% | –
CCN1CCCC1CNC(=O)c1cc(S(=O)(=O)CC)c(N)cc1OC (stereo not drawn) [Amisulpride] | 98.0 ± 5.3% | –

Molecule | % 25 nM CA200645 binding | further results
CN(CC[C@@H](Oc1ccc(C(F)(F)F)cc1)c1ccccc1)CC(=O)[O-].[Li+] [Org 24598 lithium salt] | 94.3 ± 5.8% | –
O=C1NC(=O)/C(=C\c2ccc3nccnc3c2)S1 [AS605240] | 83.4 ± 13.4% | –
Clc1cccc(Cl)c1N=C1NCCN1 [Clonidine hydrochloride] | 101.9 ± 9.8% | –
OC(CN1CCC(Cc2ccc(F)cc2)CC1)c1ccc(Cl)cc1 (stereo not drawn) [Eliprodil] | – | % 25 nM CA200645 binding [1]: 98.8 ± 8.5%
CCCn1c(=O)c(C)cn2nc(N)nc12 [ICI 63,137] | 93.4 ± 5.4% | –
COc1ccccc1CN[C@@H]1CCCN[C@@H]1c1ccccc1.Cl.Cl.O [CP-100263 dihydrochloride hydrate] | 98.5 ± 6.9% | –
CC(NCCc1ccc(O)cc1)C(O)c1ccc(O)cc1 (stereo not drawn) [Ritodrine hydrochloride] | 99.4 ± 8.5% | –
Brc1ccc([C@H]2CN3CCSC3=N2)cc1.O=C(O)C(=O)O [S(-)-p-Bromotetramisole oxalate] | 68.6 ± 44.8% | –
c1ccc(C(NCc2cccnc2)(c2ccccc2)c2ccccc2)cc1 [UCL 2077] | 52.2 ± 5.4% | –
CCN(CC)CCNC(=O)c1c(C)[nH]c(/C=C2\C(=O)Nc3ccc(F)cc32)c1C [Sunitinib malate] | 97.4 ± 12.4% | –
CN1C(C(=O)Nc2ccccn2)=C(O)c2ccccc2S1(=O)=O [Piroxicam] | 101.0 ± 12.2% | –
CC(=O)Oc1ccccc1C(=O)O [Acetylsalicylic acid] | 102.5 ± 9.1% | –
C[N+]1(C)[C@@H]2CC(OC(=O)[C@H](CO)c3ccccc3)C[C@H]1[C@@H]1O[C@@H]12.O=[N+]([O-])[O-] (single isomer, unassigned; (-)) [(-)-Scopolamine methyl nitrate] | 89.5 ± 24.4% | –
CCc1ccc2c(-c3cccc(Cl)c3)nc(=O)n(CC)c2n1 [YM 976] | 93.5 ± 3.0% | –
N[C@@H](C(=O)N[C@@H]1C(=O)N2C(C(=O)O)=C(Cl)CS[C@H]12)c1ccccc1 [Cefaclor] | 79.3 ± 20.7% | –
N[C@@H](Cc1ccc(F)cc1)C(=O)O [p-Fluoro-L-phenylalanine] | 98.5 ± 8.4% | –
COc1ccc2c(c1)c(CC(=O)O)c(C)n2Cc1ccc(Cl)cc1 | 97.1 ± 10.6% | –
Cl.c1ccc([C@H]2CN3CCSC3=N2)cc1 [(-)-Tetramisole hydrochloride] | 112.9 ± 6.8% | –
O=c1[nH]c(=S)[nH]c(-c2ccccc2)c1Cc1c(O)ccc2ccccc12 [Cambinol] | 94.8 ± 8.3% | –
O=C(O)Cc1c[nH]c2ccc(O)cc12 [5-Hydroxyindolacetic acid] | 102.3 ± 8.2% | –
Cn1c(=O)c2c(nc(/C=C/c3cccc(Cl)c3)n2C)n(C)c1=O [CSC, reference compound] | – | hit in LOPAC primary screen (inhibited the binding of CA200645 by >40%): not identified as hits
NNCCc1ccccc1 [Phenelzine sulfate] | 99.4 ± 7.6% | –
CCn1cc(C(=O)O)c(=O)c2cc3c(cc21)OCO3 [Oxolinic acid] | 101.1 ± 12.4% | –
Cn1cnc2c1c(=O)[nH]c(=O)n2C [Theobromine] | 101.7 ± 4.5% | –

Molecule | % 25 nM CA200645 binding | further results
Br.CCCN(CCC)[C@@H]1CCc2ccc(O)cc2C1 [R-(+)-7-Hydroxy-DPAT hydrobromide] | 110.9 ± 7.0% | –
O=NN(CCCl)C(=O)NCCCl [Carmustine] | 102.2 ± 1.0% | –
COc1ccc(/C=C/c2nc(NCCCN(C)C)c3ccccc3n2)cc1.Cl.Cl.O [CP-31398 dihydrochloride hydrate] | 111.8 ± 1.4% | –
C=C1C[C@@]23CC[C@H]4[C@@](C)(CCC[C@@]4(C)C(=O)O[C@@H]4O[C@H](CO)[C@@H](O)[C@H](O)[C@H]4O)[C@@H]2CC[C@]1(O[C@@H]1O[C@H](CO)[C@@H](O)[C@H](O)[C@H]1O[C@@H]1O[C@H](CO)[C@@H](O)[C@H](O)[C@H]1O)C3 [Stevioside] | 92.4 ± 13.9% | –
Cl.Oc1cc2c(cc1O)C(c1ccccc1)CNCC2 (racemic) [(±)-SKF-38393 hydrochloride] | 99.4 ± 9.0% | –
Nc1nc2ccc(Cl)cc2n2c(-c3ccccc3)nnc12 [CP-66713] | 93.9 ± 10.2% | –
O=c1nc2[nH]c3ccccc3nc-2c(=O)[nH]1 [alloxazine, reference compound] | 89.0 ± 4.9% | hit in LOPAC primary screen (inhibited the binding of CA200645 by >40%): not identified as hits
O=C1NC(=O)c2cc(Nc3ccccc3)c(Nc3ccccc3)cc21 [DAPH] | 31.8 ± 9.9% | –
COc1cccc2c1[C@@H]1CN(CCCCn3c(=O)[nH]c4c(sc5ncc(-c6ccccc6)nc54)c3=O)C[C@@H]1CO2 [Fiduxosin hydrochloride] | – | % 25 nM CA200645 binding [2]: 92.6 ± 13.4%
C[N+](C)(C)CCCCCC[N+](C)(C)C.[Cl-].[Cl-] [Hexamethonium dichloride] | 100.8 ± 9.2% | –
NC(=O)COc1c(F)cc(SCCNS(=O)(=O)c2ccccc2)cc1F | 109.8 ± 13.1% | –
c1ccc2c(c1)OCC(C1=NCCN1)O2 (stereo not drawn) [Idazoxan hydrochloride] | – | % 25 nM CA200645 binding [2]: 112.7 ± 7.0%
Clc1nccc2c1ccc1ccccc12 [CBIQ] | 87.1 ± 7.0% | –
CCCCNC(=O)NS(=O)(=O)c1ccc(C)cc1 [Tolbutamide] | 101.8 ± 7.4% | –
CC(N)=O [Acetamide] | 96.1 ± 7.6% | –
CC12CC3CC(C)(C1)CC(N)(C3)C2 [Memantine hydrochloride] | 109.9 ± 10.5% | –
CC(=O)Nc1nnc(S(N)(=O)=O)s1 [Acetazolamide] | 92.4 ± 4.0% | –
COc1ccc(C2CNC(=O)C2)cc1OC1CCCC1 (stereo not drawn) [Rolipram] | – | % 25 nM CA200645 binding [1]: 98.7 ± 10.9%
COC(=O)C1=CO[C@@H](O)[C@@H]2C(CO)=CC[C@H]12 [Genipin] | 96.3 ± 9.0% | –
S(-)-UH-301 hydrochloride | 106.6 ± 12.1% | –
Cc1scc2c1N(C(=O)CN1CCN(C)CC1)c1ccccc1NC2=O [Telenzepine dihydrochloride] | 107.0 ± 15.2% | –
Cc1cc(O)c2c(c1)C(=O)c1cc(O)cc(O)c1C2=O [Emodin] | 52.8± 4.4% | –
Nc1ncnc2n[nH]c(Nc3ccc(F)cc3)c12 [CGP 57380] | 81.2 ± 23.0% | –
